target: human catalytic domain HDAC4 protein (amino acids 648-1032) (Homo sapiens (Human), UniProt P56524); assay: Inhibition of HDAC4 catalytic domain enzymatic activity, fluorogenic substrate Boc-Lys(Tfa)-AMC; conditions: read-out: Biochemical HDAC-4 IC50
Text: The potency of Class IIa Histone Deacetylase (HDAC) inhibitors is quantified by measuring the Histone Deacetylase 4 (HDAC4) catalytic domain enzymatic activity using the fluorogenic substrate, Boc-Lys(Tfa)-AMC. The substrate is deacetylated to Boc-Lys-AMC by HDAC4. Cleavage by trypsin results in the release of the fluorophore AMC from the deacetylated substrate. The fluorescence of the sample is directly related to the histone deacetylase activity in the sample.
Serial dilutions of the HDAC inhibitors and control reference compound (1-(5-(3-((4-(1,3,4-oxadiazol-2-yl)phenoxy)methyl)-1,2,4-oxadiazol-5-yl)thiophen-2-yl)-2,2,2-trifluoroethanone) are made by first resuspending the lyophilized compound to a final concentration of 10 mM in 100% dimethyl sulfoxide (DMSO). Stocks of 60 μl aliquots of the 10 mM compound in DMSO are prepared and stored at −20° C. From one stock aliquot of each compound to be tested and the reference compound, a 16-point serial dilution is prepared according to Table 7 using a 125 μl 16-channel Matrix multi-channel pipette (Matrix Technologies Ltd). […]
5 μl of each solution of 1:20 diluted compound from above is transferred to a clear bottomed, black, 384-well assay plate using the Bravo or the Janus (384-well MDT head from Perkin Elmer). […] Finally, the fluorescence is measured (Excitation: 355 nm, Emission: 460 nm) using PerkinElmer EnVision in top read mode.

Chain of human catalytic domain HDAC4 protein (amino acids 648-1032) (P56524 648-1032): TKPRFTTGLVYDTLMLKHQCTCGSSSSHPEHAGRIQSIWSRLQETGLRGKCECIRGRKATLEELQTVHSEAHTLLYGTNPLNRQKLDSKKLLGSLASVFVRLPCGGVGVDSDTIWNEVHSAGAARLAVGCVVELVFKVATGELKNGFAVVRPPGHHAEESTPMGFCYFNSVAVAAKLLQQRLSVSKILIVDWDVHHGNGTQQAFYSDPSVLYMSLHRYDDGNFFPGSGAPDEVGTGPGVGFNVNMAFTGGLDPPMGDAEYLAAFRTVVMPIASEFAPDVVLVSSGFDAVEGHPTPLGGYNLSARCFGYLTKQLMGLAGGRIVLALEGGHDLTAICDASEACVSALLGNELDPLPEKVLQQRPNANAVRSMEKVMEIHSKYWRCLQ

Row | IC50 [nM] | SMILES
1 | 40 | Cc1ncc(C2=C[C@](C(=O)NO)(c3cccc(F)c3C)CC2)cn1 [Example 10, (S)-1-(3-fluoro-2-methylphenyl)-N-hydroxy-3-(2-methylpyrimidin-5-yl)cyclopent-2-enecarboxamide]

system: cellular histone deacetylase enzymatic activity in Jurkat E6-1 cells; assay: Inhibition of cellular HDAC activity in Jurkat E6-1 cells, fluorogenic substrate Boc-Lys(Tfa)-AMC; type: cell-based; conditions: Homo sapiens, read-out: Cell IC50
Text: Example 50: Analysis of Inhibition of Cellular HDAC Activity with Class IIa Histone Deacetylase (HDAC) Inhibitors
The potency of Class IIa Histone Deacetylase (HDAC) inhibitors is quantified by measuring the cellular histone deacetylase enzymatic activity using the fluorogenic substrate, Boc-Lys(Tfa)-AMC. After penetration in Jurkat E6-1 cells, the substrate is deacetylated to Boc-Lys-AMC. After cell lysis and cleavage by trypsin, the fluorophore AMC is released from the deacetylated substrate only. The fluorescence of the sample is directly related to the histone deacetylase activity in the sample.
Jurkat E6.1 cells are cultured according to standard cell culture protocols in Jurkat E6.1 Growth Media (RPMI without phenol red, 10% FBS, 10 mM HEPES, and 1 mM Sodium Pyruvate). Jurkat E6.1 cells are counted using a Coulter Counter and resuspended in Jurkat E6.1 growth media at a concentration of 75,000 cells/35 μl. 35 μl or 75,000 cells is seeded into Greiner microtitre assay plates. The plates are then incubated at 37° C. and 5% CO2 while other assay components are being prepared.
Serial dilutions of the HDAC inhibitors and control reference compound (1-(5-(3-((4-(1,3,4-oxadiazol-2-yl)phenoxy)methyl)-1,2,4-oxadiazol-5-yl)thiophen-2-yl)-2,2,2-trifluoroethanone) are made by first resuspending the lyophilized compound to a final concentration of 10 mM in 100% DMSO. Stocks of 70 μl aliquots of the 10 mM compound in DMSO are prepared and stored at −20° C. From one stock aliquot of each compound to be tested and the reference compound, a 16-point serial dilution is prepared according to Table 1 using a 125 μl 16-channel Matrix multi-channel pipette.
2 μl (200×) of each diluted solution and each control (full activity: 100% DMSO alone or full inhibition 1 mM) is stamped into V-bottom polypropylene 384-well compound plates using either the Bravo, Janus, or 12.5 μl 16-channel Matrix multi-channel pipette. Each well with the 200× compound solution is diluted 1:20 by the addition of 38 μl Jurkat assay buffer+DMSO (9.5% DMSO, RPMI without phenol red, 0.09% FBS, 9 mM Hepes, and 0.9 mM Sodium Pyruvate equilibrated to room temperature)
5× (500 μM) substrate is prepared just prior to the addition to the assay. The 5× substrate is prepared by diluting a 100 mM Boc-Lys(Tfa)-AMC in DMSO solution 1:200 by adding it drop-wise to Jurkat assay medium (RPMI without phenol red, 0.1% FBS, 10 mM Hepes, and 1 mM Sodium Pyruvate equilibrated to 37° C.) while vortexing at slow speed to prevent precipitation.
10 ml of 3× lysis buffer is prepared with 8.8 ml of 3× stock lysis buffer (50 mM Tris-HCl, pH 8.0, 137 mM NaCl, 2.7 mM KCl, 1 mM MgCl2, 1% Nonidet P40 Substitute equilibrated to room temperature) and 1.2 ml of 3 mg/ml Trypsin equilibrated to room temperature.
5 μl of each solution of 1:20 diluted compound from above is transferred to the Greiner microtitre assay plates with 75,000 cells/well using the Bravo. Cells are then incubated for 2 hours at 37° C. and 5% CO2. The assay is then started by adding 10 μl of 5× (500 μM) substrate to the assay plate using either the Bravo or 16-channel Matrix multi-channel pipette. The cells are then incubated for 3 hours at 37° C. and 5% CO2. Next, 25 μl of 3× lysis buffer is added to each well using either the 125 μl 16 channel pipette or the Bravo. The assay plate is then incubated overnight (15-16 hours) at 37° C. and 5% CO2. The following day, the plates are shaken on an orbital shaker for 1 minute at 900 rpm. Finally the top read fluorescence (Excitation: 355 nm, Emission: 460 nm) is measured using PerkinElmer EnVision.

Row | IC50 [nM] | SMILES
2 | 380 | Cc1ncc(C2=C[C@](C(=O)NO)(c3cccc(F)c3C)CC2)cn1 [Example 10, (S)-1-(3-fluoro-2-methylphenyl)-N-hydroxy-3-(2-methylpyrimidin-5-yl)cyclopent-2-enecarboxamide]
3 | 730 | Cc1c(F)cccc1[C@@]1(C(=O)NO)C=C(C2CC2)CC1 [Example 32, (S)-3-cyclopropyl-1-(3-fluoro-2-methylphenyl)-N-hydroxycyclopent-2-enecarboxamide]
4 | 2500 | O=C(NO)[C@]1(c2ccccc2)C=C(c2ccccc2)CC1 [Example 33, (S)-N-hydroxy-1,3-diphenylcyclopent-2-enecarboxamide]
5 | > 50000 | O=C(NO)[C@@]1(c2ccccc2)C=C(c2ccccc2)CC1 [Example 34, (R)-N-hydroxy-1,3-diphenylcyclopent-2-enecarboxamide]
6 | 3100 | O=C(NO)[C@]1(c2ccccc2)C=C(c2cncc(F)c2)CC1 [Example 35, (S)-3-(5-fluoropyridin-3-yl)-N-hydroxy-1-phenylcyclopent-2-enecarboxamide]
7 | 120 | Cc1ncc(Cl)cc1C1=C[C@](C(=O)NO)(c2cccc(F)c2C)CC1 [Example 36, (S)-3-(5-chloro-2-methylpyridin-3-yl)-1-(3-fluoro-2-methylphenyl)-N-hydroxycyclopent-2-enecarboxamide]
8 | 90 | Cc1ncccc1C1=C[C@](C(=O)NO)(c2cccc(F)c2C)CC1 [Example 37, (S)-1-(3-fluoro-2-methylphenyl)-N-hydroxy-3-(2-methylpyridin-3-yl)cyclopent-2-enecarboxamide]
9 | 10 | Cc1c(F)cccc1[C@@]1(C(=O)NO)C=C(c2ccc3cnn(C)c3c2)CC1 [Example 38, (S)-1-(3-fluoro-2-methylphenyl)-N-hydroxy-3-(1-methyl-1H-indazol-6-yl)cyclopent-2-enecarboxamide]
10 | 30 | Cc1c(F)cccc1[C@@]1(C(=O)NO)C=C(c2ccc3cnn(C(F)F)c3c2)CC1 [Example 39, (S)-3-(1-(difluoromethyl)-1H-indazol-6-yl)-1-(3-fluoro-2-methylphenyl)-N-hydroxycyclopent-2-enecarboxamide]
11 | 50 | Cc1c(F)cccc1[C@@]1(C(=O)NO)C=C(c2ccc3scnc3c2)CC1 [Example 40, (S)-3-(benzo[d]thiazol-5-yl)-1-(3-fluoro-2-methylphenyl)-N-hydroxycyclopent-2-enecarboxamide]
12 | 40 | Cc1c(F)cccc1[C@@]1(C(=O)NO)C=C(c2cc3ccccc3s2)CC1 [Example 41, (S)-3-(benzo[b]thiophen-2-yl)-1-(3-fluoro-2-methylphenyl)-N-hydroxycyclopent-2-enecarboxamide]
13 | 20 | Cc1c([C@@]2(C(=O)NO)C=C(c3ccc4cnn(C)c4c3)CC2)ccc(F)c1F [Example 42, (S)-1-(3,4-difluoro-2-methylphenyl)-N-hydroxy-3-(1-methyl-1H-indazol-6-yl)cyclopent-2-enecarboxamide]
14 | 39000 | O=C(NO)C1(c2ccccc2)CC=C(c2cncc(F)c2)CC1 (stereo not shown) [Example 43, 4-(5-fluoropyridin-3-yl)-N-hydroxy-1,2,3,6-tetrahydro-[1,1′-biphenyl]-1-carboxamide]
15 | 670 | Cc1c(F)cccc1C1(C(=O)NO)CC=C(c2cncc(F)c2)CC1 (stereo not shown) [Example 44, 3′-fluoro-4-(5-fluoropyridin-3-yl)-N-hydroxy-2′-methyl-1,2,3,6-tetrahydro-[1,1′-biphenyl]-1-carboxamide]
16 | 520 | Cc1c(F)cccc1C1(C(=O)NO)CC=C(c2ccc3nccnc3c2)CC1 (stereo not shown) [Example 45, 3′-fluoro-N-hydroxy-2′-methyl-4-(quinoxalin-6-yl)-1,2,3,6-tetrahydro-[1,1′-biphenyl]-1-carboxamide]
